Assay results taken from BindingDB's records for doi:10.1016/S1074-5521(02)00281-8 (Massachusetts Institute of Technology, 2002).
Starred links: 1 amine or outer side, 2 acyl side, 3 side chain; linkers in the order of their positions; H or OH if unused. Positions of bridges follow the written chain, without caps; N, C: chain ends. Non-standard residues stand in square brackets, D forms with d. Residues, ends and D or L forms follow the SMILES beside them. Chains are numbered I, II in the order given. Actinocin(9to1) = Cc1c2oc3c(C)ccc(C(=O)[*:1])c3nc-2c(C(=O)[*:2])c(N)c1=O; NMeV = CN[C@H](C(=O)O)C(C)C; Sar = CNCC(=O)O

Target: T1, Dolichyl-diphosphooligosaccharide--protein glycosyltransferase subunit 1 (Saccharomyces cerevisiae, UniProt P41543)
T1 sequence (P41543 whole entry): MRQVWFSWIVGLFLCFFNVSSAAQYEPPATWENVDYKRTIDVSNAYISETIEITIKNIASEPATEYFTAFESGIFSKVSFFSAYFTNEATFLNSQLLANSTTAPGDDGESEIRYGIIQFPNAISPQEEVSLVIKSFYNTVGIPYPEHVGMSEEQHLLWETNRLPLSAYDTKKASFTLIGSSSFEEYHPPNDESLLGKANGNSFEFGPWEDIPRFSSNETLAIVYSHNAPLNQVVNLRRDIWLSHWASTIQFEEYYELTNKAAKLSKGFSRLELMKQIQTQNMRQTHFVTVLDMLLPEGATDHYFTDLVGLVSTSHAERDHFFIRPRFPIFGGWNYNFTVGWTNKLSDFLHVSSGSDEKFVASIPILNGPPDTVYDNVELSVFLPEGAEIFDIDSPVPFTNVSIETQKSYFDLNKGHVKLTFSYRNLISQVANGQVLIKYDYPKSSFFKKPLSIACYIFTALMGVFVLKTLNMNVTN
Assay: Competition Assay
Details: pH 7.5; 0 °C
Description: Competition assay using S. cerevisiae oligosaccharyl transferase (OT)with disaccharide donor Dol-P-P-(GlcNAc)2 and the tripeptide substrate Bz-Asn-Leu-Thr-NHMe.

Row | Ki | SMILES
1 | 0.041 µM | Cc1c2oc3c(C)ccc(C(=O)N[C@@H]4C(=O)N[C@H](C(C)C)C(=O)N5CCC[C@H]5C(=O)N(C)CC(=O)N(C)[C@@H](C(C)C)C(=O)O[C@@H]4C)c3nc-2c(C(=O)N[C@@H]2C(=O)N[C@H](C(C)C)C(=O)N3CCC[C@H]3C(=O)N(C)CC(=O)N(C)[C@@H](C(C)C)C(=O)O[C@@H]2C)c(N)c1=O [2-amino-N,N''-bis[(3R,6S,7R,10S,16S)-3,10-diisopropyl-2,5,9,12,15-pentaketo-7,11,14-trimethyl-8-oxa-1,4,11,14-tetrazabicyclo[14.3.0]nonadecan-6-yl]-3-keto-4,6-dimethyl-phenoxazine-1,9-dicarboxamide] (I: T[dV]P[Sar][NMeV] / II: T[dV]P[Sar][NMeV]; ester I:1-I:C, II:1-II:C; linker I:N-II:N via Actinocin(9to1))
2 | 1.1 µM | COc1ccc(OC)c(Nc2nc(NCCCN(C)C)nc(N)c2[N+](=O)[O-])c1 [3-[[4-amino-6-(2,5-dimethoxyanilino)-5-nitro-pyrimidin-2-yl]amino]propyl-dimethyl-amine]
3 | 0.062 µM | COC(=O)c1ccc(O)c2nc3c(C=O)c(O)cc(O)c3nc12 [6-formyl-4,7-dihydroxy-9-keto-5H-phenazine-1-carboxylic acid methyl ester]
4 | 2.5 µM | CC(=O)Nc1ccc(NC(=O)c2ccc(Cl)nc2)cc1 [Glycopeptide, 2]

The remaining lines, values behind:

Row | SMILES | Ki
5 | O=C(Nc1ccc(C2=NCCN2)cc1)c1ccc(C(=O)Nc2ccc(C3=NCCN3)cc2)c(Cl)c1 | 4 µM
6 | COc1ccc(NS(=O)(=O)c2ccc(NC(=O)C(CCSC)NC(N)=O)cc2)cc1 (stereo not drawn) [2-(aminocarbonylamino)-N-[4-[(4-methoxyphenyl)sulfamoyl]phenyl]-4-methylsulfanyl-butanamide] | 34 µM
7 | COc1ccc(-n2cnnc2SCC(=O)Nc2cc(C)on2)cc1 [2-[[4-(4-methoxyphenyl)-1,2,4-triazol-3-yl]sulfanyl]-N-(5-methyl-1,2-oxazol-3-yl)acetamide] | 100 µM
8 | CC[N+](C)(CC)CCCCOc1ccc2c(c1)C(=O)c1cc(OCCCC[N+](C)(CC)CC)ccc1-2 [4-[7-[4-[diethyl(methyl)ammonio]butoxy]-9-keto-fluoren-2-yl]oxybutyl-diethyl-methyl-ammonium;iodide] | 4.5 µM
